Source: patent EP4122499A1, “FIBROBLAST ACTIVATION PROTEIN INHIBITORS AND USE THEREOF” (3B Pharmaceuticals GmbH, priority 2021, dated 2023)

Assays:
[1] = Plasma stability assay, mouse plasma; assay type: in vitro ADME; conditions: 37°C
Experimental: (§1) In order to determine the stability of selected compounds of the invention in human and mouse plasma, a plasma stability assay was carried out. Such plasma stability assay measures degradation of compounds of the present invention in blood plasma. This is an important characteristic of a compound as compounds, with the exception of pro-drugs, which rapidly degrade in plasma, generally show poor in vivo efficacy. […] The stability is sufficient for the diagnostic, therapeutic and theragnostic use of these compounds according to the present invention.
(§2) The plasma stability samples were prepared by spiking 50 µl plasma aliquots (all sodium citrate 3.8%) with 1 µl of a 0.5 mM compound stock solution in DMSO. After vortexing, the samples were incubated in a Thermomixer at 37°C for 4 or 6 hours. After incubation the samples were stored on ice until further treatment. All samples were prepared in duplicates.
A suitable internal standard was added to each sample (1 µl of a 0.5 mM stock solution in DMSO). Protein precipitation was performed using two different methods depending on the compound conditions as indicated in Table 8. • A) 250 µl of acetonitrile containing 1% trifluoroacetic acid was added. […] After incubation at room temperature for 30 min the precipitate was separated by centrifugation. To 100 µl of the supernatant 10 µl of 1% formic acid was added followed by further incubation at 60°C for 10 min to complete the formation of the zinc chelate, if the compound contains a free DOTA moiety.
The determination of the analyte in the clean sample solutions was performed on an Agilent 1290 UHPLC system coupled to an Agilent 6530 Q-TOF mass spectrometer. The chromatographic separation was carried out on a Phenomenex BioZen XB-C18 HPLC column (50 x 2 mm, 1.7 µm particle size) with gradient elution using a mixture of 0.1% formic acid in water as eluent A and acetonitrile as eluent B (2% B to 41% in 7 min, 800 µl/min, 40°C). Mass spectrometric detection was performed in positive ion ESI mode by scanning the mass range from m/z 50 to 3000 with a sampling rate of 2 / sec.
From the mass spectrometric raw data the ion currents for the double or triple charged monoisotopic signal was extracted for both, the compound and the internal standard.
(§3) Quantitation was performed by external matrix calibration with internal standard using the integrated analyte signals.
The result is stated as "% intact compound remaining after 4 h or 6 h" and means that from the amount of material at the start of the experiment the stated percentage is detected as unchanged material at the end of the experiment by LC-MS quantification. Since all compounds are more than 50% intact after at least 4 h they are considered as stable enough for diagnostic and therapeutic applications. Table 8: Results of the plasma stability assay

HEK-FAP cells = target: T1, HEK-FAP cells (Homo sapiens, UniProt Q12884); assay: LigandTracer assay with 111In-labeled compounds; assay type: binding; conditions: 111In-labeled compound; for kon: association rate, read-out: ka
T1 construct: expressed in transfected cells; host or cells: HEK293
T1 sequence (Q12884 1-760): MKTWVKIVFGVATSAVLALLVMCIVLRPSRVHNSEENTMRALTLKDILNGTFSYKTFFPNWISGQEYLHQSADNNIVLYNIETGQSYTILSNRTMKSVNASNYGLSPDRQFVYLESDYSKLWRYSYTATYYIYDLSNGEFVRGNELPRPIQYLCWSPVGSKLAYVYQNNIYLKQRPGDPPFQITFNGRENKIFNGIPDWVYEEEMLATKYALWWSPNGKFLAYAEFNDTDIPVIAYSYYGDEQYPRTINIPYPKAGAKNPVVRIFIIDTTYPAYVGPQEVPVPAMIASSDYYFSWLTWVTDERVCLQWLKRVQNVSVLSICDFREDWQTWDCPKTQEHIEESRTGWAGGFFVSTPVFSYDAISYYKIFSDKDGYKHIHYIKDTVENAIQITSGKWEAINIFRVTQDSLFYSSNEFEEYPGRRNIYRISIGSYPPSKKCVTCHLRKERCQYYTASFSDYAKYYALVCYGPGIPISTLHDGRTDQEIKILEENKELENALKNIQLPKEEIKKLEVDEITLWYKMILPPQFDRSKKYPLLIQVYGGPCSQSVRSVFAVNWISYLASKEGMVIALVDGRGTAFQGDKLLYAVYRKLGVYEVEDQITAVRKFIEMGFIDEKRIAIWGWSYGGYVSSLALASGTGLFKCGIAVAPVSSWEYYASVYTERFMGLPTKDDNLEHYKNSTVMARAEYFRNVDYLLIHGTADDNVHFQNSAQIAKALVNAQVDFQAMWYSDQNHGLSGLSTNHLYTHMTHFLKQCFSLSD
Experimental: HEK293 cells (human embryonic kidney cells) were engineered to express the human FAP. […] Cell concentrations were adjusted to 3 x 10^5 mL^-1, and 3.000 µL of the suspension was dispensed into a poly-lysine-coated, clear cell dish (10cm). Approximately 24 hours after re-seeding, the medium was replaced by assay medium (Ham's medium with 20 mM HEPES) containing 1 % FCS. The dish was placed in the LigandTracer® device and a baseline measurement was obtained using the LigandTracer® Control software (version 2.4). […] To determine the dissociation rate (kd) the cells were washed and subsequently incubated with fresh assay medium for several hours. […] Table 14 Results of the LigandTracer® assay

[2] = Plasma stability assay, human plasma; assay type: in vitro ADME; conditions: 37°C, 6 h
Experimental: as §1, §2
A suitable internal standard was added to each sample (1 µl of a 0.5 mM stock solution in DMSO). […]
as §3
The result is stated as "% intact compound remaining after 4 h or 6 h" and means that from the amount of material at the start of the experiment the stated percentage is detected as unchanged material at the end of the experiment by LC-MS quantification. […]

Row | HL (HEK-FAP cells) [min] | pKD (HEK-FAP cells) | Compound | % intact compound remaining after incubation ([1]; 4 h) | also measured
1 |  |  | CS(=O)(=O)c1cccc(-c2ccc3nccc(C(=O)NCC(=O)N4CC(F)(F)C[C@H]4C#N)c3c2)c1 [Compound 3BP-3126] | 78% (4 h) | 
2 | 27 ± 12 | 8.3 ± 0.2 | O=C(O)CN1CCN(CC(=O)O)CCN(CC(=O)N2CCN(CCNC(=O)c3ccc(-c4ccc5nccc(C(=O)NCC(=O)N6CCC[C@H]6C(=O)c6nc7ccccc7o6)c5c4)cn3)CC2)CCN(CC(=O)O)CC1 [Compound 3BP-4811] |  | 
3 |  |  | CS(=O)(=O)c1cccc(-c2ccc3c(C(=O)NCC(=O)N4CC(F)(F)C[C@H]4C#N)ccnc3c2)c1 [Compound 3BP-3127] | > 95% (4 h) | 
4 |  |  | O=C(NCC(=O)N1CCC[C@H]1C(=O)c1ncco1)c1ccnc2ccccc12 [Compound 3BP-3208] | 92% (4 h) | 
5 | 20 ± 5 | 8.2 ± 0.0 | O=C(O)CN1CCN(CC(=O)O)CCN(CC(=O)N2CCN(CCCOc3ccc4nccc(C(=O)NCC(=O)N5CCC[C@H]5C(=O)c5nc6ccccc6o5)c4c3)CC2)CCN(CC(=O)O)CC1 [Compound 3BP-4808] |  | kon (HEK-FAP cells): 94000 M⁻¹ s⁻¹
6 | 1477 ± 2013 | 9.8 ± 0.7 | O=C(O)CN1CCN(CC(=O)O)CCN(CC(=O)N2CCN(CCNC(=O)c3ccc(-c4ccc5nccc(C(=O)NCC(=O)N6CCC[C@H]6C(=O)c6nc7ccccc7o6)c5c4)cc3)CC2)CCN(CC(=O)O)CC1 [Compound 3BP-4663] |  | % intact compound remaining after incubation [2]: 89% (6 h); % intact compound remaining after incubation ([1]; 6 h): 92% (6 h); kon (HEK-FAP cells): 150000 M⁻¹ s⁻¹
7 |  |  | CS(=O)(=O)c1ccc(-c2ccc3c(C(=O)NCC(=O)N4CCC[C@H]4C#N)ccnc3c2)cc1 [Compound 3BP-3128] | > 95% (4 h) | 
8 |  |  | O=C(NCC(=O)N1CCC[C@H]1C(=O)c1nc2ccccc2o1)c1ccnc2c1=CCCC=2 [Compound 3BP-3205] | > 95% (4 h) | 
9 | 38 ± 4 | 8.5 ± 0.1 | O=C(O)CN1CCN(CC(=O)O)CCN(CC(=O)N2CCN(CCNC(=O)c3ccc(-c4ccc5nccc(C(=O)NCC(=O)N6C[C@@H](F)C[C@H]6C(=O)c6nc7ccccc7o6)c5c4)cc3)CC2)CCN(CC(=O)O)CC1 [Compound 3BP-4810] |  | 
10 | 3946 ± 1189 | 10.3 ± 0.1 | O=C(O)CN1CCN(CC(=O)O)CCN(CC(=O)N2CCN(CCNC(=O)c3cccc(-c4ccc5c(C(=O)NCC(=O)N6CCC[C@H]6C(=O)c6nc7ccccc7o6)ccnc5c4)c3)CC2)CCN(CC(=O)O)CC1 [Compound 3BP-4694] |  | % intact compound remaining after incubation ([1]; 6 h): 90% (6 h); kon (HEK-FAP cells): 57000 M⁻¹ s⁻¹
11 | 1798 ± 24 | 10.4 ± 0.0 | CN(CCCN1CCN(C(=O)CN2CCN(CC(=O)O)CCN(CC(O)O)CCN(CC(=O)O)CC2)CC1)c1ccc2nccc(C(=O)NCC(=O)N3CC(F)(F)C[C@H]3C#N)c2c1 [Compound 3BP-4200, reference compound] |  | 

Row | Compound | HL (HEK-FAP cells) [min] | pKD (HEK-FAP cells) | % intact compound remaining after incubation ([1]; 4 h) | also measured
12 | O=C(O)CN1CCN(CC(=O)O)CCN(CC(=O)N2CCN(CCCOc3ccc4nccc(C(=O)NCC(=O)N5C[C@@H](F)C[C@H]5C(=O)c5nc6ccccc6o5)c4c3)CC2)CCN(CC(=O)O)CC1 [Compound 3BP-4809] | 18 ± 1 | 8.2 ± 0.1 |  | 
13 | O=C(O)CN1CCN(CC(=O)O)CCN(CC(=O)NCCCS(=O)(=O)c2ccc(-c3ccc4nccc(C(=O)NCC(=O)N5CCC[C@H]5C(=O)c5nc6ccccc6o5)c4c3)cc2)CCN(CC(=O)O)CC1 [Compound 3BP-3581, (S)-2,2',2"-(10-(2-(3-(4-(4-(2-(2-(benzo[d]oxazole-2-carbonyl)pyrrolidin-1-yl)-2-oxoethylcarbamoyl)quinolin-6-yl)phenylsulfonyl)propylamino)-2-oxoethyl)-1,4,7,10-tetraazacyclododecane-1,4,7-triyl)triacetic acid] | 345 ± 218 |  |  | 
